Data as given in patent US9232796B2, “Herbicidal compositions comprising 4-amino-3-chloro-5-fluoro-6-(4-chloro-2-fluoro-3-methoxyphenyl) pyridine-2-carboxylic acid or a derivative thereof and acetyl-CoA carboxylase (ACCase) inhibitors” (DOW AGROSCIENCES LLC, priority 2012, dated 2016).

Assays:
ECHCG = experiment: Example VI in-water applied ternary mixtures, greenhouse, transplanted paddy rice weeds; format: in vivo, Echinochloa crus-galli (L.) Beauv.; details: Table 68, 22.5 gai/ha, 21 DAA
Protocol: Weed seeds or nutlets of the desired test plant species were planted in puddled soil (mud) prepared by mixing a shredded, non-sterilized mineral soil (50.5 percent silt, 25.5 percent clay, and 24 percent sand, with a pH of about 7.6 and an organic matter content of about 2.9 percent) and water at a 1:1 volumetric ratio. The prepared mud was dispensed in 365 mL aliquots into 16-ounce (oz.) non-perforated plastic pots with a surface area of 86.59 square centimeters (cm^2) leaving a headspace of 3 centimeters (cm) in each pot. Mud was allowed to dry overnight prior to planting or transplanting. Rice seeds were planted in Sun Gro MetroMix® 306 planting mixture, which typically has a pH of 6.0 to 6.8 and an organic matter content of about 30 percent, in plastic plug trays. Seedlings at the second or third leaf stage of growth were transplanted into 860 mL of mud contained in 32-oz. non-perforated plastic pots with a surface area of 86.59 cm^2 4 days prior to herbicide application. The paddy was created by filling the headspace of the pots with 2.5 to 3 cm of water. When required to ensure good germination and healthy plants, a fungicide treatment and/or other chemical or physical treatment was applied. The plants were grown for 4-22 days in a greenhouse with an approximate 14 hr. photoperiod which was maintained at about 29° C. during the day and 26° C. during the night. Nutrients were added as Osmocote® (19:6:12, N:P:K+minor nutrients) at 2 g per 16-oz. pot and 4 g per 32-oz. pot. Water was added on a regular basis to maintain the paddy flood, and supplemental lighting was provided with overhead metal halide 1000-Watt lamps as necessary. The plants were employed for testing when they reached the first through fourth true leaf stage.
Treatments consisted of the benzyl ester of 4-amino-3-chloro-5-fluoro-6-(4-chloro-2-fluoro-3-methoxy-phenyl)pyridine-2-carboxylic acid (Compound A), formulated as an SC (suspension concentrate), an ACCase inhibitor herbicide, and a third herbicidal component, each applied alone and in ternary combination. Forms of compound A were applied on an acid equivalent basis.
The ACCase inhibitor component was applied on an active ingredient basis and included cyhalofop-R-butyl formulated as Clincher® G and metamifop formulated as Metamifop EC. Other herbicidal components were applied on an active ingredient or acid equivalent basis depending on the compound and included penoxsulam formulated as Grasp® SC, bentazon sodium formulated as Basagran®, triclopyr […] (TEA) salt formulated as Grandstand® R, benzobicyclon formulated as Benzobicyclon, benfuresate formulated as Full Slot® WG, pyraclonil formulated as Pyraclon® Flowable, mefenacet (technical grade material), and pretilachlor (technical grade material).
Treatment requirements for each compound or herbicidal component were calculated based upon the rates being tested, the concentration of active ingredient or acid equivalent in the formulation, an application volume of 1 mL per component per pot, and an application area of 86.59 cm^2 per pot.
For formulated compounds, a measured amount was placed in an individual 100 or 200 mL glass vial and was dissolved in a volume of 1.25% (v/v) Agri-Dex® crop oil concentrate to obtain application solutions.
For technical grade compounds, a weighed amount was placed in an individual 100 to 200 mL glass vial and was dissolved in a volume of acetone to obtain concentrated stock solutions.
Applications were made by injecting with a pipetter appropriate amounts of the application solutions, into the aqueous layer of the paddy. Control plants were treated in the same manner with the solvent blank. Applications were made so that all treated plant material received the same concentrations of acetone and crop oil concentrate.
The treated plants and control plants were placed in a greenhouse as described above and water was added as needed to maintain a paddy flood. […]

SCPMA = experiment: as above; format: in vivo; details: Table 68, pyraclonil 22.5 gai/ha

C#CCN(C)c1c(C#N)cnn1-c1nn2c(c1Cl)CCCC2 [Pyraclonil]
Visual Weed Control (%) - 21 DAA ECHCG Obs (ECHCG): 30% | Visual Weed Control (%) - 21 DAA SCPMA Obs (SCPMA): 78%
